Experimental data as given in patent US12540131B2 (Merck Sharp & Dohme LLC, priority 2019, dated 2026).

Biological target: GST tagged truncated human mutant G2019S LRRK2 (Homo sapiens (Human), UniProt Q5S007, G2019S)
Assay: LRRK2 Km ATP LanthaScreen Assay
Format: biochemical
Details: G2019S LRRK2, 134 μM ATP (Km ATP), mean values; for IC50: read-out: LRRK2 pIC50 (converted)
Summary of the method: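 Enzyme (GST-tagged, truncated) was preincubated with compound for 15 min at RT in 50 mM Tris pH 8.5, 10 mM MgCl2, 0.01% Brij-35, 1 mM EGTA, 2 mM DTT and 0.05 mM orthovanadate. Fluorescein-LRRKtide and 134 μM ATP (Km) were then added for 90 min. EDTA and Tb-anti-pERM antibody stopped the reaction; the TR-FRET 520/495 ratio gave 4-parameter IC50s, reported as mean pIC50.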

Sequence of GST tagged truncated human mutant G2019S LRRK2 (Q5S007 970-2527 G2019S): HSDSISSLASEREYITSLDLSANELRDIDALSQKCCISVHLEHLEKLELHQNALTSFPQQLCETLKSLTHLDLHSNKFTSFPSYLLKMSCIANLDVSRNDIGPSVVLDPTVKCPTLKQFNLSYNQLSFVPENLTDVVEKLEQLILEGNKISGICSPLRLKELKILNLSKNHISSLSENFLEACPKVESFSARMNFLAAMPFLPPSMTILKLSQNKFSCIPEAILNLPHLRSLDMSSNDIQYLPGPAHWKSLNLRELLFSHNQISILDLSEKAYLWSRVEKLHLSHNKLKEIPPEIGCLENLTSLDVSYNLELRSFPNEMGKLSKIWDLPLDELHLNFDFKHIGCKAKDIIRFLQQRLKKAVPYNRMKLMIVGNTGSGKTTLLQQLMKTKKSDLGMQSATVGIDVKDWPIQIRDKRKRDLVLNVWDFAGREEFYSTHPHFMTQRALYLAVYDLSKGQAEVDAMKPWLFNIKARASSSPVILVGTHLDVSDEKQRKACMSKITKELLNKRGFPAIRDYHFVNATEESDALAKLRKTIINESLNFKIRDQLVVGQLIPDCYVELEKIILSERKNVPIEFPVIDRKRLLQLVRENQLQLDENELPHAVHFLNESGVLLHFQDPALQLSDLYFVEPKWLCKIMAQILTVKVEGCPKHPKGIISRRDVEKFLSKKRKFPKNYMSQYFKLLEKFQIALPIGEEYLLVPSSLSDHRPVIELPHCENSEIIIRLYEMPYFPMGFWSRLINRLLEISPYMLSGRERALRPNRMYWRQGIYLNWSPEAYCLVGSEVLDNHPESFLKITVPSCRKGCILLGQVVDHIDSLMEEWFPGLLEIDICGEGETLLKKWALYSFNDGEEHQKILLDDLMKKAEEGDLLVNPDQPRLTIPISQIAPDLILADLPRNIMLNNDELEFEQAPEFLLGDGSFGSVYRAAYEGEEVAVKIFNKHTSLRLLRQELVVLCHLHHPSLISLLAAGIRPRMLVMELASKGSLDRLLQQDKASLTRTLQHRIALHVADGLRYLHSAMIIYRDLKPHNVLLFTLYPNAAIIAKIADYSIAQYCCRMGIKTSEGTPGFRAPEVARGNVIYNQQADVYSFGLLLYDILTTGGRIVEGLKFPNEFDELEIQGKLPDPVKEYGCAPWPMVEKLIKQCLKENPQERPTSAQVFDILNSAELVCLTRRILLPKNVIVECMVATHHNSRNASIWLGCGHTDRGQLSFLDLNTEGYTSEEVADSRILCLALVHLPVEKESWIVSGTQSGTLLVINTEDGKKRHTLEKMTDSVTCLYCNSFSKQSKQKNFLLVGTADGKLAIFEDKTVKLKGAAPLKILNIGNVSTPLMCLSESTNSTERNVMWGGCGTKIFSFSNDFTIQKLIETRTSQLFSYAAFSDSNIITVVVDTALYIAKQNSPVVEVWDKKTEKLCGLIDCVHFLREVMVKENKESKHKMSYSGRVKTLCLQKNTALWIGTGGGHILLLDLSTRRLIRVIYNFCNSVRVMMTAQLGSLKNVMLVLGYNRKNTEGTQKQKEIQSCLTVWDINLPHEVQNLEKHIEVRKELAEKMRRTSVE

Structure (SMILES) | LRRK2 pIC50 | IC50
N#Cc1cc2cnc(Nc3cnn(C4CC4(F)F)c3Cl)nc2cc1[C@H]1CCN(C2COC2)C[C@@H]1F (single isomer, unassigned) [Ex-6.7, (R)(3S,4S) or (S)(3S,4S) or (R)(3R,4R) or (S)(3R,4R) 2-((5-chloro-1-(2,2-difluorocyclopropyl)-1H-pyrazol-4-yl)amino)-7-(3-fluoro-1-(oxetan-3-yl)piperidin-4-yl)quinazoline-6-carbonitrile] | 9.01 | 
CO[C@@H]1COC[C@]1(C)N1CCC(c2cc3nc(Nc4cnn(C5CC5)c4C)ncc3cc2Cl)CC1 (single isomer, unassigned) [Ex-7.3, (3S,4S) or (3R,4R) 6-chloro-N-(1-cyclopropyl-5-methyl-1H-pyrazol-4-yl)-7-(1-(4-methoxy-3-methyltetrahydrofuran-3-yl)piperidin-4-yl)quinazolin-2-amine] |  | 11700 pM
Cc1c(Nc2ncc3cc(Cl)c(C4CCN(C5COCC5F)CC4)cc3n2)cnn1C1CC1 (single isomer, unassigned) [Ex-7.4, (3S,4S) or (3R,4R) or (3S,4R) or (3R,4S) 6-chloro-N-(1-cyclopropyl-5-methyl-1H-pyrazol-4-yl)-7-[1-(4-fluorooxolan-3-yl)piperidin-4-yl]quinazolin-2-amine] | >9.20 | 
CO[C@H]1COC[C@H]1N1CCC(c2cc3nc(Nc4cnn(C5CC5)c4C)ncc3cc2Cl)CC1 (single isomer, unassigned) [Ex-7.5, (3S,4S) or (3R,4R) 6-chloro-N-(1-cyclopropyl-5-methyl-1H-pyrazol-4-yl)-7-[1-(4-methoxyoxolan-3-yl)piperidin-4-yl]quinazolin-2-amine] | >9.20 | 
Cc1cc2cnc(Nc3cnn(C4CC4(F)F)c3C)nc2cc1[C@@H]1CCN(C2COCC2F)C[C@H]1F (single isomer, unassigned) [Ex-7.6] | >9.20 | 
Cc1cc2cnc(Nc3cnn(C4CC4)c3Cl)nc2cc1[C@@H]1CCN(C2COCC2F)C[C@H]1F (single isomer, unassigned) [Ex-7.9, (3S,4R)(3S,4S) or (3R,4S)(3S,4S) or (3R,4R)(3S,4S) or (3S,4S)(3S,4S) or (3S,4R)(3R,4R) or (3R,4S)(3R,4R) or (3R,4R)(3R,4R) or (3S,4S)(3R,4R) N-(5-chloro-1-cyclopropyl-1H-pyrazol-4-yl)-7-[3-fluoro-1-(4-fluorooxolan-3-yl)piperidin-4-yl]-6-methylquinazolin-2-amine] | 9.04 | 
CC(n1ncc(Nc2ncc3cc(Cl)c(C4CCN(C5COC5)CC4)cc3n2)c1Cl)C(F)(F)F (single isomer, unassigned) [Ex-8.3, (S) or (R) 6-chloro-N-[5-chloro-1-(1,1,1-trifluoropropan-2-yl)-1H-pyrazol-4-yl]-7-[1-(oxetan-3-yl)piperidin-4-yl]quinazolin-2-amine] |  | < 631 pM
Cc1nsc(Nc2ncc3cc(Cl)c(C4CCN(C5CCOC5)CC4)cc3n2)c1Cl (single isomer, unassigned) [Ex-8.18, (S) or (R) 6-chloro-N-(4-chloro-3-methyl-1,2-thiazol-5-yl)-7-[1-(oxolan-3-yl)piperidin-4-yl]quinazolin-2-amine] |  | < 631 pM
Cc1nsc(Nc2ncc3cc(Cl)c(C4CCN(C5CCOC5)CC4)cc3n2)c1Cl (single isomer, unassigned) [Ex-8.19, (S) or (R) 6-chloro-N-(4-chloro-3-methyl-1,2-thiazol-5-yl)-7-[1-(oxolan-3-yl)piperidin-4-yl]quinazolin-2-amine] |  | 1150 pM
Cc1nsc(Nc2ncc3cc(Cl)c([C@@H]4CCN(C5CCOC5)C[C@H]4F)cc3n2)c1Cl (single isomer, unassigned) [Ex-8.20, (3S,4S)(S) or (3S,4S)(R) or (3R,4R)(S) or (3R,4R)(R) 6-chloro-N-(4-chloro-3-methyl-1,2-thiazol-5-yl)-7-[3-fluoro-1-(oxolan-3-yl)piperidin-4-yl]quinazolin-2-amine] | 8.53 | 
Cc1nsc(Nc2ncc3cc(Cl)c([C@@H]4CCN(C5CCOC5)C[C@H]4F)cc3n2)c1Cl (single isomer, unassigned) [Ex-8.21, (3S,4S)(S) or (3S,4S)(R) or (3R,4R)(S) or (3R,4R)(R) 6-chloro-N-(4-chloro-3-methyl-1,2-thiazol-5-yl)-7-[3-fluoro-1-(oxolan-3-yl)piperidin-4-yl]quinazolin-2-amine] | 8.44 | 
Cc1nsc(Nc2ncc3cc(Cl)c([C@H]4CCN(C5CCOC5)C[C@@H]4F)cc3n2)c1Cl (single isomer, unassigned) [Ex-8.22, (3S,4S)(S) or (3S,4S)(R) or (3R,4R)(S) or (3R,4R)(R) 6-chloro-N-(4-chloro-3-methyl-1,2-thiazol-5-yl)-7-[3-fluoro-1-(oxolan-3-yl)piperidin-4-yl]quinazolin-2-amine] | 8.68 | 
Cc1nsc(Nc2ncc3cc(Cl)c([C@H]4CCN(C5CCOC5)C[C@@H]4F)cc3n2)c1Cl (single isomer, unassigned) [Ex-8.23, (3S,4S)(S) or (3S,4S)(R) or (3R,4R)(S) or (3R,4R)(R) 6-chloro-N-(4-chloro-3-methyl-1,2-thiazol-5-yl)-7-[3-fluoro-1-(oxolan-3-yl)piperidin-4-yl]quinazolin-2-amine] | 8.12 | 
CC(O)(Cn1ncc(Nc2ncc3cc(Cl)c(C4CCN(C5COC5)CC4)cc3n2)c1Cl)C(F)(F)F (single isomer, unassigned) [Ex-8.25, (S) or (R) 3-[5-chloro-4-({6-chloro-7-[1-(oxetan-3-yl)piperidin-4-yl]quinazolin-2-yl}amino)-1H-pyrazol-1-yl]-1,1,1-trifluoro-2-methylpropan-2-ol] |  | < 631 pM
CC(O)(Cn1ncc(Nc2ncc3cc(Cl)c(C4CCN(C5COC5)CC4)cc3n2)c1Cl)C(F)(F)F (single isomer, unassigned) [Ex-8.27, (S) or (R) 3-[5-chloro-4-({6-chloro-7-[1-(oxetan-3-yl)piperidin-4-yl]quinazolin-2-yl}amino)-1H-pyrazol-1-yl]-1,1,1-trifluoro-2-methylpropan-2-ol] |  | 851 pM
F[C@@H]1CN(C2COC2)CC[C@H]1c1cc2nc(Nc3cnn(C4CC4(F)F)c3Cl)ncc2cc1Cl (single isomer, unassigned) [Ex-8.28, (R)(3S,4S) or (S)(3S,4S) or (R)(3R,4R) or (S)(3R,4R) 6-chloro-N-[5-chloro-1-(2,2-difluorocyclopropyl)-1H-pyrazol-4-yl]-7-[3-fluoro-1-(oxetan-3-yl)piperidin-4-yl]quinazolin-2-amine] | 9.04 | 
F[C@@H]1CN(C2COC2)CC[C@H]1c1cc2nc(Nc3cnn(C4CC4(F)F)c3Cl)ncc2cc1Cl (single isomer, unassigned) [Ex-8.29, (R)(3S,4S) or (S)(3S,4S) or (R)(3R,4R) or (S)(3R,4R) 6-chloro-N-[5-chloro-1-(2,2-difluorocyclopropyl)-1H-pyrazol-4-yl]-7-[3-fluoro-1-(oxetan-3-yl)piperidin-4-yl]quinazolin-2-amine] | 8.88 | 
F[C@H]1CN(C2COC2)CC[C@@H]1c1cc2nc(Nc3cnn(C4CC4(F)F)c3Cl)ncc2cc1Cl (single isomer, unassigned) [Ex-8.30, (R)(3S,4S) or (S)(3S,4S) or (R)(3R,4R) or (S)(3R,4R) 6-chloro-N-[5-chloro-1-(2,2-difluorocyclopropyl)-1H-pyrazol-4-yl]-7-[3-fluoro-1-(oxetan-3-yl)piperidin-4-yl]quinazolin-2-amine] | 8.96 | 
F[C@H]1CN(C2COC2)CC[C@@H]1c1cc2nc(Nc3cnn(C4CC4(F)F)c3Cl)ncc2cc1Cl (single isomer, unassigned) [Ex-8.31, (R)(3S,4S) or (S)(3S,4S) or (R)(3R,4R) or (S)(3R,4R) 6-chloro-N-[5-chloro-1-(2,2-difluorocyclopropyl)-1H-pyrazol-4-yl]-7-[3-fluoro-1-(oxetan-3-yl)piperidin-4-yl]quinazolin-2-amine] | >9.20 | 
O[C@@H]1COC[C@@H]1N1CC[C@H](c2cc3nc(Nc4cnn(C56CC(C5)C6)c4Cl)ncc3cc2Cl)[C@@H](F)C1 (single isomer, unassigned) [Ex-8.32, (3S,4S)(3S,4S) or (3S,4S)(3R,4R) or (3R,4R)(3S,4S) or (3R,4R)(3R,4R) 4-[4-(2-{[1-(bicyclo[1.1.1]pentan-1-yl)-5-chloro-1H-pyrazol-4-yl]amino}-6-chloroquinazolin-7-yl)-3-fluoropiperidin-1-yl]oxolan-3-ol] | 9.05 | 
Cc1cc2cnc(Nc3cnn(C45CC(C4)C5)c3Cl)nc2cc1[C@@H]1CCN([C@@H]2COC[C@@H]2O)C[C@H]1F (single isomer, unassigned) [Ex-8.33, (3S,4S)(3S,4S) or (3S,4S)(3R,4R) or (3R,4R)(3S,4S) or (3R,4R)(3R,4R) 4-[4-(2-{[1-(bicyclo[1.1.1]pentan-1-yl)-5-chloro-1H-pyrazol-4-yl]amino}-6-methylquinazolin-7-yl)-3-fluoropiperidin-1-yl]oxolan-3-ol] | >9.20 | 
Cc1cc2cnc(Nc3cnn(C45CC(C4)C5)c3Cl)nc2cc1[C@@H]1CCN([C@H]2COC[C@H]2O)C[C@H]1F (single isomer, unassigned) [Ex-8.34, (3S,4S)(3S,4S) or (3S,4S)(3R,4R) or (3R,4R)(3S,4S) or (3R,4R)(3R,4R) 4-[4-(2-{[1-(bicyclo[1.1.1]pentan-1-yl)-5-chloro-1H-pyrazol-4-yl]amino}-6-methylquinazolin-7-yl)-3-fluoropiperidin-1-yl]oxolan-3-ol] | >9.20 | 
